For this experiment, the target named is interaction between p53 and MDM2 proteins (recombinant GST-tagged MDM2, biotinylated p53 peptide) (Homo sapiens, UniProt Q00987). The experiment in a line: HTRF (homogeneous time-resolved fluorescence) assay of p53-MDM2 interaction. Conditions: bsa 0.02%. Format: binding. As for the experimental part:
The ability of the compounds to inhibit the interaction between p53 and MDM2 proteins was measured by an HTRF (homogeneous time-resolved fluorescence) assay in which recombinant GST-tagged MDM2 binds to a peptide that resembles the MDM2-interacting region of p53 (Lane et al.). Binding of GST-MDM2 protein and p53-peptide (biotinylated on its N-terminal end) is registered by the FRET (fluorescence resonance energy transfer) between Europium (Eu)-labeled anti-GST antibody and streptavidin-conjugated Allophycocyanin (APC).
Add 10 uL diluted compounds (1:5 dilution in reaction buffer) to each well, mix by shaking. Add 20 uL biotinylated p53 peptide (180 nM working solution) in reaction buffer to each well and mix on shaker. Incubate at 37° C. for 1 h. Add 20 uL streptavidin-APC and Eu-anti-GST antibody mixture (6 nM Eu-anti-GST and 60 nM streptavidin-APC working solution) in TBS buffer with 0.2% BSA, shake at room temperature for 30 minutes and read using a TRF-capable plate reader at
665 and 615 nm (Victor 5, Perkin ElmerWallac). If not specified, the reagents were purchased from Sigma Chemical Co.
Sequence of interaction between p53 and MDM2 proteins (recombinant GST-tagged MDM2, biotinylated p53 peptide) (Q00987 whole entry): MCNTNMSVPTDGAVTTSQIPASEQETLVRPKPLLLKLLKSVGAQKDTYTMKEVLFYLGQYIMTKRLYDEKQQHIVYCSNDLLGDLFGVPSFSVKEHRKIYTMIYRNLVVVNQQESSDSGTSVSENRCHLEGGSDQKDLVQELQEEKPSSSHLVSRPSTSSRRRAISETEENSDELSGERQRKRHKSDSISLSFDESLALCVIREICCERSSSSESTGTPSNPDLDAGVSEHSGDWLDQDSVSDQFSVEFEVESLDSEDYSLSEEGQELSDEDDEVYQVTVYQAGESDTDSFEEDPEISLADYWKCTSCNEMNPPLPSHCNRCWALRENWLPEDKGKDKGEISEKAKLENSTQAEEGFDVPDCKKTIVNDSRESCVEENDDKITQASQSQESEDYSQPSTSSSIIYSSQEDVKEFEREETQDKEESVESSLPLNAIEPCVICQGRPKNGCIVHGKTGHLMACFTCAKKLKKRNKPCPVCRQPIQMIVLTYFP
On to `CC(C)(C)C[C@@H]1CN(C(=O)OCc2ccc(C(=O)O)cc2)[C@H](c2cccc(Cl)c2F)[C@]12C(=O)Nc1cc(Cl)ccc12` (racemic) [Example 49, rac-(2′S,3′S,4′S)-6-chloro-2′-(3-chloro-2-fluoro-phenyl)-4′-(2,2-dimethyl-propyl)-2-oxo-1,2-dihydro-spiro[indole-3,3′-pyrrolidine]-1′-carboxylic acid 4-carboxy-benzyl ester], for which the IC50 was determined as 178 nM.

For the molecule `CC(C)(CO)C[C@@H]1CN(C(=O)NCC[C@H](O)CO)[C@H](c2cccc(Cl)c2F)[C@]12C(=O)Nc1cc(Cl)ccc12` (mixture of isomers) [Example 33, rac-(2′S,3′S,4′S)-6-chloro-2′-(3-chloro-2-fluoro-phenyl)-4′-(3-hydroxy-2,2-dimethyl-propyl)-2-oxo-1,2-dihydro-spiro[indole-3,3′-pyrrolidine]-1′-carboxylic acid ((S)-3,4-dihydroxy-butyl)-amide], the IC50 was 725 nM.

As for `CC(C)(C)C[C@@H]1CN(C(=O)NC2CCN(S(C)(=O)=O)CC2)[C@H](c2cccc(Cl)c2F)[C@]12C(=O)Nc1cc(Cl)ccc12` [Example 28, chiral (2′S,3′S,4′S)-6-chloro-2′-(3-chloro-2-fluoro-phenyl)-4′-(2,2-dimethyl-propyl)-2-oxo-1,2-dihydro-spiro[indole-3,3′-pyrrolidine]-1′-carboxylic acid (1-methanesulfonyl-piperidin-4-yl)-amide], the IC50 was 133 nM.

For `COC(=O)c1ccc(NC(=O)N2C[C@@H](CC(C)(C)C)[C@@]3(C(=O)Nc4cc(Cl)ccc43)[C@H]2c2cccc(Cl)c2F)cc1` (racemic) [Example 12, rac-4-{[(2′S,3′S,4′S)-6-chloro-2′-(3-chloro-2-fluoro-phenyl)-4′-(2,2-dimethyl-propyl)-2-oxo-1,2-dihydro-spiro[indole-3,3′-pyrrolidin]e-1′-carbonyl]-amino}-benzoic acid methyl ester], the IC50 was 581 nM.

Consider `CC(C)(C)C[C@@H]1CN[C@H](c2cccc(Cl)c2F)[C@]12C(=O)Nc1cc(Cl)ccc12` (racemic) [Example 6, rac-(2′S,3′S,4′S)-6-chloro-2′-(3-chloro-2-fluoro-phenyl)-4′-(2,2-dimethyl-propyl)-1H-spiro[indole-3,3′-pyrrolidin]-2-one], for which the IC50 was found to be 773 nM.

As usually defined, the IC50 is the concentration that gives 50% inhibition.

The record behind these values is patent publication US8288431B2, “Substituted spiroindolinones” (Hoffmann-La Roche Inc., priority 2010, dated 2012).
